In PubChem BioAssay AID1259407 (Chemical Carcinogenesis Research Information System (CCRIS), 2018):
The source made the active and inactive calls. The rule behind the calls is not given here.

Tested on: CCRIS mutagenicity, Ames/micronucleus/aberration tests
Assay: CCRIS mutagenicity studies
[1] = Test System: AMES SALMONELLA TYPHIMURIUM, Strain/Indicator: TA98, Metabolic Activation: NONE, Method: PREINCUBATION
[2] = Test System: AMES SALMONELLA TYPHIMURIUM, Strain/Indicator: TA100, Metabolic Activation: NONE, Method: PREINCUBATION
[3] = Test System: AMES SALMONELLA TYPHIMURIUM, Strain/Indicator: TA100, Metabolic Activation: NONE, Method: STANDARD PLATE
[4] = Test System: AMES SALMONELLA TYPHIMURIUM, Strain/Indicator: TA98, Metabolic Activation: NONE, Method: STANDARD PLATE
[5] = Test System: AMES SALMONELLA TYPHIMURIUM, Strain/Indicator: TA98, Metabolic Activation: S-9, Method: STANDARD PLATE
[6] = Test System: AMES SALMONELLA TYPHIMURIUM, Strain/Indicator: TA100, Metabolic Activation: S-9, Method: STANDARD PLATE

Compound: COC(=O)CC(C)=O
- mutagenic call (End Point: In vitro chromosomal aberrations, Test System: Chinese hamster lung (CHL/IU) cells, Metabolic Activation: None): inactive; negative
- mutagenic call (End Point: In vitro chromosomal aberrations, Test System: Chinese hamster lung (CHL/IU) cells, Metabolic Activation: Rat, Liver, S9, Phenobarbital and 5,6-benzoflavone): active; positive (ploidy)
- mutagenic call [1]: inactive; negative
- mutagenic call (Test System: AMES SALMONELLA TYPHIMURIUM, Strain/Indicator: TA98, Metabolic Activation: RAT LIVER S-9, PHENOBARBITAL AND BETA-NAPHTHOFLAVONE, Method: PREINCUBATION): inactive; negative
- mutagenic call (Test System: AMES SALMONELLA TYPHIMURIUM, Strain/Indicator: TA98, Metabolic Activation: RAT, LIVER, S-9, KC 500, Method: PREINCUBATION): inactive; negative
- mutagenic call [2]: inactive; negative
- mutagenic call (Test System: AMES SALMONELLA TYPHIMURIUM, Strain/Indicator: TA100, Metabolic Activation: RAT LIVER S-9, PHENOBARBITAL AND BETA-NAPHTHOFLAVONE, Method: PREINCUBATION): inactive; negative
- mutagenic call (Test System: AMES SALMONELLA TYPHIMURIUM, Strain/Indicator: TA100, Metabolic Activation: RAT, LIVER, S-9, KC 500, Method: PREINCUBATION): inactive; negative
- mutagenic call (Test System: AMES SALMONELLA TYPHIMURIUM, Strain/Indicator: TA1535, Metabolic Activation: NONE, Method: PREINCUBATION): inactive; negative
- mutagenic call (Test System: AMES SALMONELLA TYPHIMURIUM, Strain/Indicator: TA1535, Metabolic Activation: RAT LIVER S-9, PHENOBARBITAL AND BETA-NAPHTHOFLAVONE, Method: PREINCUBATION): inactive; negative
- mutagenic call (Test System: AMES SALMONELLA TYPHIMURIUM, Strain/Indicator: TA1535, Metabolic Activation: RAT, LIVER, S-9, KC 500, Method: PREINCUBATION): inactive; negative
- mutagenic call (Test System: AMES SALMONELLA TYPHIMURIUM, Strain/Indicator: TA1537, Metabolic Activation: NONE, Method: PREINCUBATION): inactive; negative
- mutagenic call (Test System: AMES SALMONELLA TYPHIMURIUM, Strain/Indicator: TA1537, Metabolic Activation: RAT LIVER S-9, PHENOBARBITAL AND BETA-NAPHTHOFLAVONE, Method: PREINCUBATION): inactive; negative
- mutagenic call (Test System: AMES SALMONELLA TYPHIMURIUM, Strain/Indicator: TA1537, Metabolic Activation: RAT, LIVER, S-9, KC 500, Method: PREINCUBATION): inactive; negative
- mutagenic call (Test System: AMES SALMONELLA TYPHIMURIUM, Strain/Indicator: TA1538, Metabolic Activation: NONE, Method: PREINCUBATION): inactive; negative
- mutagenic call (Test System: AMES SALMONELLA TYPHIMURIUM, Strain/Indicator: TA1538, Metabolic Activation: RAT, LIVER, S-9, KC 500, Method: PREINCUBATION): inactive; negative
- mutagenic call (Test System: E. COLI, Strain/Indicator: WP2 UVRA, Metabolic Activation: NONE, Method: PREINCUBATION): inactive; negative
- mutagenic call (Test System: E. COLI, Strain/Indicator: WP2 UVRA, Metabolic Activation: RAT, LIVER, S-9, KC 500, Method: PREINCUBATION): inactive; negative
- mutagenic call (Test System: E.COLI, Strain/Indicator: WP2UVRA/PKM101, Metabolic Activation: NONE, Method: PREINCUBATION): inactive; negative
- mutagenic call (Test System: E.COLI, Strain/Indicator: WP2UVRA/PKM101, Metabolic Activation: RAT LIVER S-9, PHENOBARBITAL AND BETA-NAPHTHOFLAVONE, Method: PREINCUBATION): inactive; negative

Compound: COc1cc(O)c2c(=O)c3c(O)ccc(O)c3oc2c1
- mutagenic call (Test System: AMES SALMONELLA TYPHIMURIUM, Strain/Indicator: TA97, Metabolic Activation: NONE, Method: PREINCUBATION): active; positive
- mutagenic call (Test System: AMES SALMONELLA TYPHIMURIUM, Strain/Indicator: TA97, Metabolic Activation: RAT, LIVER, S-9, PHENOBARBITAL AND 5,6-BENZOFLAVONE, Method: PREINCUBATION): active; positive
- mutagenic call (Test System: AMES SALMONELLA TYPHIMURIUM, Strain/Indicator: TA98, Metabolic Activation: RAT, LIVER, S-9, PHENOBARBITAL AND 5,6-BENZOFLAVONE, Method: PREINCUBATION): inactive; negative
- mutagenic call (Test System: AMES SALMONELLA TYPHIMURIUM, Strain/Indicator: TA100, Metabolic Activation: RAT, LIVER, S-9, PHENOBARBITAL AND 5,6-BENZOFLAVONE, Method: PREINCUBATION): inactive; negative
- mutagenic call (Test System: AMES SALMONELLA TYPHIMURIUM, Strain/Indicator: TA2637, Metabolic Activation: RAT, LIVER, S-9, PHENOBARBITAL AND 5,6-BENZOFLAVONE, Method: PREINCUBATION): active; positive

Compound: CCC[CH2][Sn]([CH2]CCC)([CH2]CCC)[CH2]CCC
- mutagenic call (Test System: AMES SALMONELLA TYPHIMURIUM, Strain/Indicator: TA98, Metabolic Activation: NONE, Method: SUSPENSION/PLATE): inactive; negative
- mutagenic call (Test System: AMES SALMONELLA TYPHIMURIUM, Strain/Indicator: TA100, Metabolic Activation: NONE, Method: SUSPENSION/PLATE): inactive; negative

Compound: ClCCN(CCCl)c1ccc2ccccc2c1
- mutagenic call [3]: active; positive
- mutagenic call (Test System: AMES SALMONELLA TYPHIMURIUM, Strain/Indicator: TA100, Metabolic Activation: RAT, LIVER, S-9, AROCLOR 1254, Method: STANDARD PLATE): active; positive
- mutagenic call (Test System: AMES SALMONELLA TYPHIMURIUM, Strain/Indicator: TA100, Metabolic Activation: RAT, LIVER, S-9, AROCLOR (10%), Method: STANDARD PLATE): active; positive
- mutagenic call (Test System: AMES SALMONELLA TYPHIMURIUM, Strain/Indicator: TA100, Metabolic Activation: RAT, LIVER, S-9, AROCLOR (WITHOUT ADDED COFACTORS), Method: STANDARD PLATE): active; positive
- mutagenic call (Test System: AMES SALMONELLA TYPHIMURIUM, Strain/Indicator: TA1535, Metabolic Activation: NONE, Method: STANDARD PLATE): active; positive
- mutagenic call (Test System: AMES SALMONELLA TYPHIMURIUM, Strain/Indicator: TA1535, Metabolic Activation: RAT, LIVER, S-9, AROCLOR (10%), Method: STANDARD PLATE): active; positive

Compound: CC(C)COC(=O)CCCCC(=O)OCC(C)C
- mutagenic call (Test System: AMES SALMONELLA TYPHIMURIUM, Strain/Indicator: TA97, Metabolic Activation: NONE, Method: STANDARD PLATE): inactive; negative
- mutagenic call (Test System: AMES SALMONELLA TYPHIMURIUM, Strain/Indicator: TA97, Metabolic Activation: S-9, Method: STANDARD PLATE): inactive; negative
- mutagenic call [4]: inactive; negative
- mutagenic call [5]: inactive; negative
- mutagenic call [3]: inactive; negative
- mutagenic call [6]: inactive; negative
- mutagenic call (Test System: AMES SALMONELLA TYPHIMURIUM, Strain/Indicator: TA102, Metabolic Activation: NONE, Method: STANDARD PLATE): inactive; negative
- mutagenic call (Test System: AMES SALMONELLA TYPHIMURIUM, Strain/Indicator: TA102, Metabolic Activation: S-9, Method: STANDARD PLATE): inactive; negative
- mutagenic call (Test System: E.COLI, Strain/Indicator: WP2 (PKM101), Metabolic Activation: NONE, Method: STANDARD PLATE): inactive; negative
- mutagenic call (Test System: E.COLI, Strain/Indicator: WP2 (PKM101), Metabolic Activation: S-9, Method: STANDARD PLATE): inactive; negative

Compound: CC(C)=CCC/C(C)=C/CO
- mutagenic call [4]: inactive; negative
- mutagenic call [5]: inactive; negative
- mutagenic call [3]: inactive; negative
- mutagenic call [6]: inactive; negative

Compound: Cc1cccc(C)c1[N+](=O)[O-]
- mutagenic call [1]: inactive; negative
- mutagenic call (Test System: AMES SALMONELLA TYPHIMURIUM, Strain/Indicator: TA98, Metabolic Activation: RAT, LIVER, S-9, KANECHLOR 500, Method: PREINCUBATION): inactive; negative
- mutagenic call [2]: inactive; negative
- mutagenic call (Test System: AMES SALMONELLA TYPHIMURIUM, Strain/Indicator: TA100, Metabolic Activation: RAT, LIVER, S-9, KANECHLOR 500, Method: PREINCUBATION): inactive; negative
